The values that follow come from article PMC3971757 (Journal of Natural Products, 2013).

The target in test [1] is NA of influenza virus A PR/8/34 (Influenza A virus, UniProt P03468). Briefly: biochemical. Details: species or system influenza A virus H1N1 (A/PR/8/34). The note with it: 50% NA inhibitory concentration against influenza virus A PR/8/34.
Test [2] concerns the target NA of influenza virus A HK/68 (Influenza A virus, UniProt Q91MA2). The test can be described thus: biochemical. Details: species or system influenza A virus H3N2 (A/HongKong/68).
In test [3] the test system is NA of influenza virus A/PR/8/34 (H1N1). The note with it: FL-based NA inhibition assay; cited from earlier work.
In test [4] the test system is NA of influenza virus A/Jinan/15/90 (H3N2). The note with it: FL-based NA inhibition assay; cited from earlier work.
The test system of test [5] is NA of influenza virus B/Jiangsu/10/2003. As to conditions: FL-based NA inhibition assay; cited from earlier work.
The test system of a further test is NA of PR/8/34. The note with it: read-out: IC50 NA inhibition (PR/8/34); earlier study; cited from earlier work.

Sequence of NA of influenza virus A PR/8/34 (P03468 whole entry, looked up): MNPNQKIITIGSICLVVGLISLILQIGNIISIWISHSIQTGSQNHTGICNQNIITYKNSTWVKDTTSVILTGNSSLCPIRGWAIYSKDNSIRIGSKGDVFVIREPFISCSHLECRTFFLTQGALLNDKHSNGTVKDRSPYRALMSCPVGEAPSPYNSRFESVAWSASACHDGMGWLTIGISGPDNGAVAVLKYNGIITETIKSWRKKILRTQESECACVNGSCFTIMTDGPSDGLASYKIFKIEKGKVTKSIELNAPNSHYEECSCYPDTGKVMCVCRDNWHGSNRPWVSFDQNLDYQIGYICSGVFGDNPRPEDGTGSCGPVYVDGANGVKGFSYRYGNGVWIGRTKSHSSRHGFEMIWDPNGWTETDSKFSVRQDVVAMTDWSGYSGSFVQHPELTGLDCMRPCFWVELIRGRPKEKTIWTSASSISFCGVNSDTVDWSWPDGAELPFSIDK
Sequence of NA of influenza virus A HK/68 (Q91MA2 whole entry, looked up): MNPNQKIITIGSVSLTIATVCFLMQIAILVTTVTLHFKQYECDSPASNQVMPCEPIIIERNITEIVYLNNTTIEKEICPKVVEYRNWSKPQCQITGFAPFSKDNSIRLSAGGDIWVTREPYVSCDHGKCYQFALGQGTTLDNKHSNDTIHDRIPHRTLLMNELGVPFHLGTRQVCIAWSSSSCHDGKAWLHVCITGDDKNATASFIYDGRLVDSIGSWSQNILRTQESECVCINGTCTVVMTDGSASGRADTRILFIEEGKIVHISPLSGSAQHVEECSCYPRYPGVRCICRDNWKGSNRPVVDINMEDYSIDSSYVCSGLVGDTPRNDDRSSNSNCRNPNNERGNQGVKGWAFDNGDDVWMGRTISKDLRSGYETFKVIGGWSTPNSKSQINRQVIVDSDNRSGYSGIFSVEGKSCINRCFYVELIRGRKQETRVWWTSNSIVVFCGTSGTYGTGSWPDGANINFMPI

As for `CC(C)=CCc1c(O)ccc(C(=O)/C=C/c2cc(O)c3c(c2)C=CC(C)(C)O3)c1O` [Compound 1, (E)-1-[2,4-dihydroxy-3-(3-methyl-2-butenyl)phenyl]-3-(8-hydroxy-2,2-dimethyl-2H-1-benzopyran-6-yl)-2-propen-1-one], in test [1], the IC50 came to 0.25 µM.
`CC1(C)C=Cc2c(ccc3c2OCC(O)C3)O1` (stereo not drawn) [Compound 2, 3,4-dihydro-8,8-dimethyl-2H,8H-benzo[1,2-b:3,4-b′]dipyran-3-ol]: the IC50 in test [1] was determined as 6.47 ± 2.59 µM; in test [2], 12.4 ± 4.14 µM.
In the case of `COc1ccc(-c2coc3cc(O)ccc3c2=O)cc1` [Compound 3, biochanin B], the IC50 in test [1] was found to be 1.37 ± 0.22 µM. Also, the “activity against the NA of influenza virus A/PR/8/34 (H1N1)” value in test [3] is “weak activity”. The “activity against the NA of influenza virus A/Jinan/15/90 (H3N2)” value in test [4] is on record as “weak activity”. Besides, the “activity against the NA of influenza virus B/Jiangsu/10/2003” value in test [5] is listed as “weak activity”.
For `CC(C)=CCc1cc([C@@H]2CC(=O)c3ccc(O)c(CC=C(C)C)c3O2)ccc1O` [Compound 4, glabrol], the IC50 is 0.51 µM in test [1] and 3.06 ± 1.21 µM in test [2].
For `CC1(C)C=Cc2c(ccc(-c3coc4cc(O)ccc4c3=O)c2O)O1` [Compound 5, glabrone], in that order: 0.4 ± 0.17 µM and 5.34 ± 2.29 µM.
Consider `CC1(C)C=Cc2c(ccc([C@@H]3COc4c(ccc5c4C=CC(C)(C)O5)C3)c2O)O1` [Compound 6, hispaglabridin B], for which the IC50 was found to be 1.11 ± 0.53 µM in test [1] and 2.85 ± 1.58 µM in test [2].
The compound `O=C1C[C@@H](c2ccc(O)cc2)Oc2cc(O)ccc21` [Compound 10, liquiritigenin] displayed an IC50 in test [1] of 2.07 ± 0.37 µM.
As to `O=C1C[C@@H](c2ccc(O[C@@H]3O[C@H](CO)[C@@H](O)[C@H](O)[C@H]3O)cc2)Oc2cc(O)ccc21` [Compound 11, liquiritin], the IC50 in test [1] amounted to 83.1 ± 17.8 µM. Besides, in test [3], the “activity against the NA of influenza virus A/PR/8/34 (H1N1)” value is on record as “weak activity”. Further, the “activity against the NA of influenza virus A/Jinan/15/90 (H3N2)” value in test [4] was “weak activity”. Also, the “activity against the NA of influenza virus B/Jiangsu/10/2003” value in test [5] is listed as “weak activity”.
Regarding `O=C1C[C@@H](c2ccc(O)cc2)Oc2cc(O[C@@H]3O[C@H](CO)[C@@H](O)[C@H](O)[C@H]3O)cc(O)c21` [Compound 12, prunin], in test [1], the IC50 is 3 ± 0.46 µM.
On the same count and under the same terms, as for `C=CCc1ccc(O)c(-c2ccc(O)c(CC=C)c2)c1` [Honokiol, honokiol, reference compound], the figure is 3.01 µM.
For `O=C(CCc1ccccc1)C[C@@H]1C[C@@H](c2ccccc2)c2c(cc(/C=C/c3ccccc3)oc2=O)O1` [Katsumadain A, katsumadain A], the IC50 in the test on NA of PR/8/34 was 1.05 µM.
